What all share (assay type): functional
Assay [1] can be described thus: Growth inhibition of human MOLT4 cells at 10 uM after 48 hrs by sulforhodamine B assay. To be noted: MOLT-4, 48 h, values are per cent of control.
In another assay the test system is 786-0. Kind of assay: Growth inhibition of human 786-0 cells at 10 uM after 48 hrs by sulforhodamine B assay. To be noted: 786-0, 48 h, values are per cent of control. (In general: Sulforhodamine B stains cellular protein and so reports cell mass.)
The nature of assay [2]: Growth inhibition of human TK10 cells at 10 uM after 48 hrs by sulforhodamine B assay. To be noted: TK-10, 48 h, values are per cent of control.
Another assay has as its system Malme-3M. Kind of assay: Growth inhibition of human MALME-3M cells at 10 uM after 48 hrs by sulforhodamine B assay. The conditions noted are these: values are per cent of control.
A further assay concerns NCI-H226. Kind of assay: Growth inhibition of human NCI-H226 cells at 10 uM after 48 hrs by sulforhodamine B assay. To be noted: NCI-H226, 48 h, values are per cent of control.
Assay [3] is described as follows: Growth inhibition of human PC3 cells at 10 uM after 48 hrs by sulforhodamine B assay. To be noted: PC-3, 48 h, values are per cent of control.
A short description of assay [4]: Growth inhibition of human RPMI8226 cells at 10 uM after 48 hrs by sulforhodamine B assay. The conditions noted are these: RPMI-8226, 48 h, values are per cent of control.
The nature of assay [5]: Growth inhibition of human OVCAR3 cells at 10 uM after 48 hrs by sulforhodamine B assay. The conditions noted are these: OVCAR-3, 48 h, values are per cent of control.
A further assay relates to NCI-H23. The assay can be described thus: Growth inhibition of human NCI-H23 cells at 10 uM after 48 hrs by sulforhodamine B assay. The conditions noted are these: NCI-H23, 48 h, values are per cent of control.
Assay [6] in a line: Growth inhibition of human HL-60(TB) cells at 10 uM after 48 hrs by sulforhodamine B assay. The conditions noted are these: HL-60, 48 h, values are per cent of control.
The test system of another assay is MCF7. The assay can be described thus: Growth inhibition of human MCF7 cells at 10 uM after 48 hrs by sulforhodamine B assay. To be noted: MCF7, 48 h, values are per cent of control.
Assay [7] is described as follows: Growth inhibition of human UACC257 cells at 10 uM after 48 hrs by sulforhodamine B assay. To be noted: UACC-257, 48 h, values are per cent of control.
Another assay relates to SK-MEL-2. The assay can be described thus: Growth inhibition of human SK-MEL-2 cells at 10 uM after 48 hrs by sulforhodamine B assay. To be noted: SK-MEL-2, 48 h, values are per cent of control.
Assay [8] is described as follows: Growth inhibition of human SF295 cells at 10 uM after 48 hrs by sulforhodamine B assay. To be noted: SF-295, 48 h, values are per cent of control.
Another assay has as its system SR. Kind of assay: Growth inhibition of human SR cells at 10 uM after 48 hrs by sulforhodamine B assay. The conditions noted are these: values are per cent of control.
Assay [9] is described as follows: Growth inhibition of human HOP92 cells at 10 uM after 48 hrs by sulforhodamine B assay. To be noted: HOP-92, 48 h, values are per cent of control.
A further assay relates to CCRF-CEM. Kind of assay: Growth inhibition of human CCRF-CEM cells at 10 uM after 48 hrs by sulforhodamine B assay. To be noted: values are per cent of control.
The test system of the next assay is HT-29. Kind of assay: Growth inhibition of human HT-29 cells at 10 uM after 48 hrs by sulforhodamine B assay. The conditions noted are these: HT-29, 48 h, values are per cent of control.
Assay [10] in a line: Growth inhibition of human SKOV3 cells at 10 uM after 48 hrs by sulforhodamine B assay. The conditions noted are these: SK-OV-3, 48 h, values are per cent of control.

Among the data in ChEMBL document CHEMBL3792365, “Dioxol and dihydrodioxin analogs of 2- and 3-phenylacetonitriles as potent anti-cancer agents with nanomolar activity against a variety of human cancer cells” (2016) are growth, % of control values, retold here.

With `COc1ccc(/C=C(\C#N)c2ccc3c(c2)OCO3)cc1OC`, the growth, % of control at 10 µM in assay [1] was determined as 85.2%; in the assay with 786-0, 103%; in assay [2] it was 96.5%; in the assay on Malme-3M, 103%; in the assay with NCI-H226 it was 114%; in assay [3] it was 100%. Further, the growth, % of control at 10 µM in assay [4] came to 96.9%; in assay [5], 109%; in the assay with NCI-H23, 97.1%; in assay [6], 72%; in the assay on MCF7, 87.2%; in [7], 118%. Also, the growth, % of control at 10 µM in the assay with SK-MEL-2 was determined as 102%; in assay [8] it was 105%; in the assay with SR, 83%; in assay [9], 110%; in the assay on CCRF-CEM it was 89.4%; with HT-29 it was 106%. This compound also displayed a growth, % of control at 10 µM in assay [10] of 105%.

Consider `N#C/C(=C\c1ccc2c(c1)OCO2)c1ccc2c(c1)OCO2`, for which the growth, % of control at 10 µM in assay [1] was determined as 67.7%; with 786-0, 90%; in assay [2], 91%; in the assay on Malme-3M it was 69%; in the assay on NCI-H226, 94.9%; in assay [3], 70.2%. Moreover, the growth, % of control at 10 µM in [4] was found to be 75.2%; in [5], 71.7%; with NCI-H23, 83.2%; in [6], 57.9%; with MCF7, 23.9%; in assay [7] it was 80.2%. The growth, % of control at 10 µM was determined as 63.5% with SK-MEL-2; 76.5% in assay [8]; 26.2% in the assay on SR; 94.2% in assay [9]; 73.2% in the assay on CCRF-CEM; 39.6% in the assay on HT-29. Moreover, the growth, % of control at 10 µM in assay [10] was 85.5%.

Turning to `N#C/C(=C\c1cc(F)cc(F)c1)c1ccc2c(c1)OCO2`, the growth, % of control at 10 µM in assay [1] came to 83.1%; in the assay on 786-0 it was 94.6%; in assay [2] it was 119%; in the assay with Malme-3M it was 116%; in the assay on NCI-H226, 102%; in assay [3], 101%. The growth, % of control at 10 µM in assay [4] was 94.7%; in [5], 109%; in the assay on NCI-H23, 103%; in assay [6] it was 108%; in the assay on MCF7, 88.4%; in [7] it was 104%. For the same compound, the growth, % of control at 10 µM in the assay with SK-MEL-2 stood at 119%; in [8], 98.5%; in the assay with SR it was 84.6%; in assay [9], 125%; with CCRF-CEM, 97.7%; in the assay with HT-29, 109%. The growth, % of control at 10 µM in assay [10] came out at 102%.

`N#C/C(=C\c1cc(Br)cc(Br)c1)c1ccc2c(c1)OCO2`: the growth, % of control at 10 µM in assay [1] came out at 66.6%; in the assay on 786-0, 98.2%; in [2], 96.1%; in the assay with Malme-3M, 84%; in the assay on NCI-H226, 115%; in assay [3] it was 89.2%. The growth, % of control at 10 µM in [4] stood at 76.6%; in assay [5], 103%; with NCI-H23, 91.5%; in [6] it was 62.9%; in the assay on MCF7, 82.3%; in [7], 100%. The growth, % of control at 10 µM in the assay with SK-MEL-2 was determined as 88.7%; in assay [8], 96.4%; with SR, 79%; in assay [9], 113%; with CCRF-CEM, 75.4%; in the assay with HT-29 it was 91.1%. Also, the growth, % of control at 10 µM in [10] is 94.4%.

For `N#C/C(=C\c1ccc(Cl)cc1Cl)c1ccc2c(c1)OCO2`, the growth, % of control at 10 µM was 79.2% in [1]; 91.4% in the assay on 786-0; 90.7% in assay [2]; 76.4% with Malme-3M; 113% with NCI-H226; 93.4% in assay [3]. For the same compound, the growth, % of control at 10 µM in assay [4] is 84.6%; in [5], 98.4%; in the assay with NCI-H23, 96.3%; in [6], 87.3%; in the assay with MCF7 it was 110%; in assay [7], 93.8%. Besides, the growth, % of control at 10 µM in the assay with SK-MEL-2 stood at 98.9%; in assay [8] it was 97.5%; with SR it was 68.7%; in assay [9] it was 99.9%; with CCRF-CEM, 93.3%; in the assay on HT-29 it was 89.7%. Also, in assay [10], the growth, % of control at 10 µM is 97.3%.

In the case of `COc1ccc(/C=C(\C#N)c2ccc3c(c2)OCO3)cn1`, the growth, % of control at 10 µM in assay [1] is 71.5%; in the assay with 786-0, 107%; in assay [2], 80.4%; in the assay with Malme-3M it was 90.6%; in the assay on NCI-H226 it was 93.3%; in assay [3], 77.9%. The growth, % of control at 10 µM in assay [4] stood at 73.2%; in assay [5], 100%; with NCI-H23, 93.7%; in assay [6], 70.8%; in the assay with MCF7, 83.5%; in assay [7], 89.4%. The growth, % of control at 10 µM in the assay with SK-MEL-2 came out at 93.2%; in [8], 89.3%; in the assay on SR, 50.1%; in assay [9] it was 64.9%; in the assay on CCRF-CEM, 87.7%; with HT-29 it was 63.8%. Besides, the growth, % of control at 10 µM in assay [10] is 83.1%.
